Some test systems named below: A549 NSCLC; HL-60(TB) leukemia; IGROV1 ovarian; HT29 colon; HOP-92 NSCLC; 786-0 renal; SK-MEL-2 melanoma; MOLT-4 leukemia; SK-MEL-5 melanoma.
What all share (assay): NCI anticancer screen, dose series, 48 h

The results in this text go back to PubChem BioAssay (NCI).

Several values for one entry are separate records, joined by “and”; a condition that tells them apart may be missing. Equal values may be shown once.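 Grown in 96-well plates, cells were treated for 48 hours with each compound at five concentrations. Insufficient inhibition: endpoint recorded as highest concentration tested. Here, GI50 denotes the concentration required for 50% inhibition of growth. Definition used: TGI = concentration required for complete inhibition of growth.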

Take `Cc1ccc2c(c1)C1C(CO2)C(c2ccccc2)=NN1c1ccccc1` (stereo unspecified): the TGI in the experiment on A549 NSCLC, in the experiment on HL-60(TB) leukemia, in the experiment with IGROV1 ovarian, with HT29 colon, in the experiment on HOP-92 NSCLC and in the experiment with 786-0 renal was greater than 100 µM throughout. Further, the TGI with SK-MEL-2 melanoma and in the experiment on MOLT-4 leukemia was greater than 100 µM in each case.

For `COC(=O)N/N=C(\C(=O)Nc1cccc([N+](=O)[O-])c1)c1nc2ccc([N+](=O)[O-])cc2[nH]c1=O`, the TGI in the experiment on A549 NSCLC, with HL-60(TB) leukemia, with IGROV1 ovarian, with HT29 colon, in the experiment on HOP-92 NSCLC and with 786-0 renal was greater than 100 µM in each case. The TGI in the experiment on SK-MEL-5 melanoma and with MOLT-4 leukemia was greater than 100 µM throughout.

Regarding `COC(=O)NN1C(C)=C(C(=O)OC)C2(C#N)C(C(=O)OC)=C(C)N(NC(=O)OC)C12N` (stereo unspecified), the TGI with A549 NSCLC, with HL-60(TB) leukemia, with IGROV1 ovarian, in the experiment on HT29 colon, with HOP-92 NSCLC and in the experiment with 786-0 renal was greater than 100 µM throughout. Further, the TGI in the experiment with SK-MEL-2 melanoma and in the experiment on MOLT-4 leukemia was greater than 100 µM in each case.

Turning to `CSc1ccc(OCC2OC2O)cc1` (stereo unspecified), the TGI is greater than 100 µM with A549 NSCLC; greater than 83.5 µM in the experiment with HL-60(TB) leukemia; greater than 100 µM with IGROV1 ovarian; greater than 90.9 µM in the experiment on HT29 colon; greater than 100 µM in the experiment on HOP-92 NSCLC; greater than 100 µM in the experiment on 786-0 renal. Moreover, the figures for the TGI in the experiment on SK-MEL-5 melanoma, in the experiment on SK-MEL-2 melanoma and with MOLT-4 leukemia were 35.6 µM, greater than 100 µM and greater than 75.5 µM, respectively.

On to `CC1=NN2C(c3ccc(C)cc3)=CSC2=NC(C)(C)C1`, for which the TGI in the experiment with A549 NSCLC, in the experiment with HL-60(TB) leukemia, with IGROV1 ovarian, in the experiment on HT29 colon, in the experiment on HOP-92 NSCLC and with 786-0 renal was greater than 100 µM in each case. The TGI with SK-MEL-5 melanoma, with SK-MEL-2 melanoma and in the experiment with MOLT-4 leukemia was greater than 100 µM throughout.

Take `C1COCCOCCOCCOCCOCCO1.[Cl][Sn]([Cl])([c]1ccccc1)[c]1ccccc1`: the GI50 in the experiment on A549 NSCLC was 20.2 µM; in the experiment on HL-60(TB) leukemia, 2.64 µM; with IGROV1 ovarian, 11.2 µM; in the experiment on HT29 colon it was 7.28 µM; in the experiment with HOP-92 NSCLC it was 2.26 µM; in the experiment with 786-0 renal, 2.41 µM. The GI50 with SK-MEL-5 melanoma was 4.86 µM; in the experiment with SK-MEL-2 melanoma, 1.7 µM; in the experiment with MOLT-4 leukemia, 3.21 µM. Moreover, the TGI with A549 NSCLC worked out at 34.4 µM; in the experiment with HL-60(TB) leukemia it was 7.55 µM; in the experiment with IGROV1 ovarian it was 23.7 µM; in the experiment with HT29 colon, 18.9 µM; in the experiment with HOP-92 NSCLC it was 4.52 µM; in the experiment with 786-0 renal, 5.51 µM. The TGI in the experiment with SK-MEL-5 melanoma is 17.2 µM; in the experiment with SK-MEL-2 melanoma, 3.25 µM; in the experiment on MOLT-4 leukemia it was 14.5 µM.

As for `C/C=C(/CCC1NCCC2c3ccccc3NC12)[Si](C)(C)C` (stereo unspecified), the TGI came to 29.2 µM in the experiment with A549 NSCLC; 4.36 µM in the experiment on HL-60(TB) leukemia; 25.6 µM with IGROV1 ovarian; 8.53 µM in the experiment on HT29 colon; 18.8 µM in the experiment on HOP-92 NSCLC; 23.7 µM in the experiment with 786-0 renal. Further, the TGI in the experiment on SK-MEL-5 melanoma turned out to be 26 µM; in the experiment with SK-MEL-2 melanoma it was 26.7 µM; in the experiment with MOLT-4 leukemia, 16.4 µM.

Turning to `NC1=NN(c2ccccc2)C(=O)C1/C(=N\NC(=O)c1cc2ccccc2cc1O)C(=O)Nc1cccc(C(F)(F)F)c1` (stereo unspecified), the TGI with A549 NSCLC is greater than 100 µM; with HL-60(TB) leukemia, 27.6 µM; in the experiment on IGROV1 ovarian, greater than 100 µM; in the experiment on HT29 colon it was greater than 100 µM; in the experiment with HOP-92 NSCLC, greater than 100 µM; in the experiment on 786-0 renal, greater than 100 µM. Besides, the TGI came to 51.8 µM in the experiment with SK-MEL-5 melanoma, 93.8 µM in the experiment on SK-MEL-2 melanoma and 65.9 µM in the experiment on MOLT-4 leukemia.

As for `COC(=O)C[CH2][Ge]([CH3])([CH3])[S]c1ccccc1`, the GI50 is 30.6 µM in the experiment on A549 NSCLC; 12.2 µM with HL-60(TB) leukemia; 1.25 µM in the experiment with IGROV1 ovarian; 44.2 µM in the experiment on HT29 colon; 17.7 µM with HOP-92 NSCLC; 21.6 µM in the experiment on 786-0 renal. Also, the GI50 with SK-MEL-5 melanoma was 32.6 µM; in the experiment with SK-MEL-2 melanoma, 27.4 µM; in the experiment with MOLT-4 leukemia, 8.31 µM. Moreover, the TGI in the experiment on A549 NSCLC was greater than 100 µM; with HL-60(TB) leukemia, 31.4 µM; in the experiment with IGROV1 ovarian, 4.72 µM; in the experiment with HT29 colon, greater than 100 µM; in the experiment on HOP-92 NSCLC, 92.8 µM; with 786-0 renal, 45 µM. For the same compound, the TGI with SK-MEL-5 melanoma is greater than 100 µM; in the experiment with SK-MEL-2 melanoma it was 71.8 µM; in the experiment with MOLT-4 leukemia it was 33.5 µM.

In the case of `C=C(C)C1CC=C(C)CC1` (stereo unspecified), the GI50 in the experiment on A549 NSCLC, in the experiment on HL-60(TB) leukemia, with IGROV1 ovarian, in the experiment with HT29 colon, in the experiment with HOP-92 NSCLC and with 786-0 renal was greater than 100 µM throughout. In addition, the GI50 in the experiment on SK-MEL-5 melanoma, in the experiment with SK-MEL-2 melanoma and with MOLT-4 leukemia was greater than 100 µM throughout. The TGI was > 100 µM and 1790 µM with A549 NSCLC; > 100 µM and 1720 µM in the experiment on HL-60(TB) leukemia; > 100 µM and 1830 µM in the experiment with IGROV1 ovarian; > 100 µM and 1730 µM with HT29 colon; > 100 µM and 1530 µM in the experiment on HOP-92 NSCLC; > 100 µM and 1620 µM in the experiment on 786-0 renal. Besides, the TGI with SK-MEL-5 melanoma is > 100 µM and 1560 µM; in the experiment with SK-MEL-2 melanoma, > 100 µM and 1720 µM; in the experiment with MOLT-4 leukemia, > 100 µM and 2180 µM.

As for `COC(=O)C1=Cc2cc(OC)c(OC)cc2[C@H](c2ccc(OC)c(OC)c2)C1C(=O)OC` (stereo partly specified), the TGI in the experiment on A549 NSCLC, in the experiment with HL-60(TB) leukemia, with IGROV1 ovarian, in the experiment with HT29 colon, in the experiment with HOP-92 NSCLC and with 786-0 renal was greater than 100 µM each time. Besides, the TGI in the experiment with SK-MEL-5 melanoma and in the experiment with MOLT-4 leukemia was greater than 100 µM each time.

Take `O=C(CC1(O)C(=O)Nc2ccccc21)c1ccc(F)cc1` (stereo unspecified): the TGI in the experiment on A549 NSCLC, in the experiment on HL-60(TB) leukemia, in the experiment with IGROV1 ovarian, in the experiment on HT29 colon, in the experiment with HOP-92 NSCLC and in the experiment with 786-0 renal was greater than 100 µM each time. Further, the TGI with SK-MEL-5 melanoma, in the experiment on SK-MEL-2 melanoma and with MOLT-4 leukemia was greater than 100 µM in each case.
